23 compounds from US20050014806A1, “Substituted isoxazoles and their use as antibiotics” (priority 2001, published 2005) can be followed below.

Molecules are shown by their SMILES. In brackets after ≈: the same amount, converted by molar mass. Where only a bound is given, the exact number is not on record here.

Common to all, as to type: cell-based
Assay [1] has as its system Streptococcus faecalis (BCM-010). The assay is described as follows: MIC by microdilution in microtiter plate, BCM-010. Conditions: Enterococcus faecalis, incubation 24 h at 35° C. How it is done: (§1) In order to assess the antimicrobial activity of the compounds of the present invention a method of microdilution in microtiter plate was used. The compounds were diluted in a nutritious medium and, subsequently, distributed by two-fold serial dilutions in 96 well plates. Then, plates were inoculated with a bacterial suspension. After incubation for 24 h at 35° C. the minimum inhibitory concentration (MIC) of the drug in […] was determined as the lowest concentration of compound which inhibits the growth of the bacterium. Results included in Table 1 illustrate the antimicrobial activity of some of the compounds of the present invention in comparison with thus obtained with two compounds (linezolid and eperezolid) of a known antimicrobial activity. The antimicrobial activity of the compound versus Streptococcus faecalis (BCM-010, strain designation as for SALVAT collection) Staphylococcus aureus (BCM-012, strain designation as for SALVAT collection) and Moraxella catarrhalis (BCM-015, strain designation as for SALVAT collection), respectively, is shown in the different columns.
On the technique in general: Dilution methods test growth across graded concentrations, often in twofold steps.

In assay [2] the test system is Staphylococcus aureus (BCM-012). As to the kind of experiment: MIC by microdilution in microtiter plate, BCM-012. Conditions: incubation 24 h at 35° C. How it is done:
as §1

In assay [3] the test system is Moraxella catarrhalis (BCM-015). The assay is described as follows: MIC by microdilution in microtiter plate, BCM-015. Conditions: incubation 24 h at 35° C. How it is done:
as §1

A word on the MIC: it is the least concentration at which growth counts as inhibited. Lower therefore signals greater potency. Turning to `O=C(Cn1cccn1)N1CCN(c2ccc(-c3cc(CNc4ccon4)on3)cc2F)CC1` [Example 6], the minimal inhibitory concentration (MIC) in assay [1] was 4 µg/mL (≈ 8.86 µM); in assay [2], 2 µg/mL (≈ 4.43 µM); in assay [3], above 16 µg/mL.
With `Fc1cc(-c2cc(CNc3ccon3)on2)ccc1-n1ccnc1` [Example 2, 3-(3-fluoro-4-imidazol-1-ylphenyl)-5-(isoxazol-3-ylaminomethyl)isoxazole], the minimal inhibitory concentration (MIC) is 4 µg/mL (≈ 12.3 µM) in assay [1] and 2 µg/mL (≈ 6.15 µM) in assay [2].
Regarding `COc1ccccc1NCc1cn(-c2ccc(-c3cc(CNc4ccon4)on3)cc2F)cn1` [Example 29, [3-(3-fluoro-4-{4-[(2-methoxiphenylamino)-methyl]imidazol-1-yl}phenyl)isoxazol-5-ylmethyl]isoxazol-3-ylamine], the MIC in assay [1] is 1 µg/mL (≈ 2.17 µM); in assay [2] it was 0.5 µg/mL (≈ 1.09 µM); in assay [3], 4 µg/mL (≈ 8.69 µM).
Consider `O=C(COc1ccc2ncccc2c1)N1CCN(c2ccc(-c3cc(CNc4ccon4)on3)cc2F)CC1` [Example 22, 1-(4-{2-fluoro-4-[5-(isoxazol-3-ylaminomethyl)-isoxazol-3-yl]-phenyl}piperazin-1-yl)-2(quinolin-6-yloxy)ethanone], for which the MIC was 1 µg/mL (≈ 1.89 µM) in assay [1], 0.5 µg/mL (≈ 0.946 µM) in assay [2] and 4 µg/mL (≈ 7.57 µM) in assay [3].
Consider `OCc1ccn(-c2ccc(-c3cc(CNc4ccon4)on3)cc2F)c1` [Example 23, (1-{2-fluoro-4-[5-(isoxazol-3-ylaminomethyl)-isoxazol-3-yl]phenyl}-1H-pyrrol-3-yl)methanol], for which the values for the MIC in assay [1], in assay [2] and in assay [3] were 1 µg/mL (≈ 2.82 µM), 0.5 µg/mL (≈ 1.41 µM) and 4 µg/mL (≈ 11.3 µM), respectively.
With `CC(=O)NC[C@H]1CN(c2ccc(N3CCN(C(=O)CO)CC3)c(F)c2)C(=O)O1` [Eperezolid, eperezolid, reference compound], the MIC in assay [1] came out at 4 µg/mL (≈ 10.1 µM); in assay [2] it was 2 µg/mL (≈ 5.07 µM); in assay [3], 8 µg/mL (≈ 20.3 µM).
As to `O=C(COc1ccccc1)N1CCN(c2ccc(-c3cc(CNc4ccon4)on3)cc2F)CC1` [Example 7, 1-(4-{2-fluoro-4-[5-(isoxazol-3-ylaminomethyl)-isoxazol-3-yl]-phenyl}piperazin-1-yl)-2-phenoxyethanone], the figures for the MIC in assay [1] and in assay [2] were 4 µg/mL (≈ 8.38 µM) and 2 µg/mL (≈ 4.19 µM), respectively.
`O=C(COc1ccc([N+](=O)[O-])cc1)N1CCN(c2ccc(-c3cc(CNc4ccon4)on3)cc2F)CC1` [Example 14, 3-[3-fluoro-4-(4-nitrophenyloxyaetyl)piperazin-1-ylphenyl]-5-(isoxazol-3-ylaminomethyl)isoxazole]: the figures for the minimal inhibitory concentration (MIC) in assay [1] and in assay [2] were 2 µg/mL (≈ 3.83 µM) and 1 µg/mL (≈ 1.91 µM), respectively.
For `O=C(CO)N1CCN(c2ccc(-c3cc(CNc4ccon4)on3)cc2F)CC1` [Example 1, 3-[3-fluoro-4-(hydroxyacetyl)piperazin-1-ylyhenyl]-5-(isoxazol-3-ylaminomethyl)isoxazole], the results for the MIC in assay [1], in assay [2] and in assay [3] were 4 µg/mL (≈ 9.97 µM), 2 µg/mL (≈ 4.98 µM) and 8 µg/mL (≈ 19.9 µM), respectively.
Turning to `O=Cc1cn(-c2ccc(-c3cc(CNc4ccon4)on3)cc2F)cn1` [Example 27, 1-{2-fluoro-4-[5-(isoxazol-3-ylaminomethyl)isoxazol-3-yl]phenyl}-1H-imidazol-4-carboxaldehyde], the MIC in assay [1] stood at 2 µg/mL (≈ 5.66 µM); in assay [2], 0.5 µg/mL (≈ 1.42 µM); in assay [3], 4 µg/mL (≈ 11.3 µM).
Turning to `O=C(COCc1ccccn1)N1CCN(c2ccc(-c3cc(CNc4ccon4)on3)cc2F)CC1` [Example 16, 3-[3-fluoro-4-(2-pyridylmethoxyacetyl)piperazin-1-ylphenyl]-5-(isoxazol-3-ylaminomethyl)isoxazole], the MIC in assay [1] was determined as 4 µg/mL (≈ 8.12 µM); in assay [2], 2 µg/mL (≈ 4.06 µM).
On to `O=C(Cn1cccc1)N1CCN(c2ccc(-c3cc(CNc4ccon4)on3)cc2F)CC1` [Example 10, 3-[3-fluoro-4-(4-(1-pyrrolyl)acetyl)piperazin-1-ylphenyl]-5-(isoxazol-3-ylaminomethyl)isoxazole], for which the minimal inhibitory concentration (MIC) in assay [1] is 4 µg/mL (≈ 8.88 µM); in assay [2] it was 2 µg/mL (≈ 4.44 µM); in assay [3], above 16 µg/mL.
Regarding `O=C(Cn1cncn1)N1CCN(c2ccc(-c3cc(CNc4ccon4)on3)cc2F)CC1` [Example 8, 3-[3-fluoro-4-(4-(1,2,4-triazol-1-yl)acetyl)piperazin-1-ylphenyl]-5-(isoxazol-3-ylaminomethyl)isoxazole], the MIC in assay [1] was 4 µg/mL (≈ 8.84 µM); in assay [2] it was 2 µg/mL (≈ 4.42 µM).
On to `O=C(COCc1ccco1)N1CCN(c2ccc(-c3cc(CNc4ccon4)on3)cc2F)CC1` [Example 15, 3-[3-fluoro-4-(2-furylmethoxyacetyl)piperazin-1-ylphenyl]-5-(isoxazol-3-ylaminomethyl)isoxazole], for which the MIC in assay [1] is 4 µg/mL (≈ 8.31 µM); in assay [2] it was 2 µg/mL (≈ 4.15 µM).
For the compound `O=C(COc1cccnc1)N1CCN(c2ccc(-c3cc(CNc4ccon4)on3)cc2F)CC1` [Example 11, 3-[3-fluoro-4-(3-pyridyloxyacetyl)piperazin-1-ylphenyl]-5-(isoxazol-3-ylaminomethyl)isoxazole], the values for the MIC in assay [1] and in assay [2] were 4 µg/mL (≈ 8.36 µM) and 2 µg/mL (≈ 4.18 µM), respectively.
With `N#Cc1ccc(OCC(=O)N2CCN(c3ccc(-c4cc(CNc5ccon5)on4)cc3F)CC2)cc1` [Example 17, 3-[3-fluoro-4-(4-cyanophenoxyacetyl)piperazin-1-ylphenyl]-5-(isoxazol-3-ylaminomethyl)isoxazole], the MIC in assay [1] and in assay [2] was 2 µg/mL (≈ 3.98 µM) throughout.
Take `O=Cc1ccc(OCC(=O)N2CCN(c3ccc(-c4cc(CNc5ccon5)on4)cc3F)CC2)cc1` [Example 19, 3-[3-fluoro-4-(4-formylphenyloxyacetyl)piperazin-1-ylphenyl]-5-(isoxazol-3-ylaminomethyl)isoxazole]: the minimal inhibitory concentration (MIC) in assay [1] came to 0.5 µg/mL (≈ 0.989 µM); in assay [2], 1 µg/mL (≈ 1.98 µM).
On to `C#CCOCC(=O)N1CCN(c2ccc(-c3cc(CNc4ccon4)on3)cc2F)CC1` [Example 18, 3-[3-fluoro-4-(3-propyn-1-yloxyacetyl)piperazin-1-ylphenyl]-5-(isoxazol-3-ylaminomethyl)isoxazole], for which the values for the MIC in assay [1] and in assay [2] were 4 µg/mL (≈ 9.1 µM) and 2 µg/mL (≈ 4.55 µM), respectively.
In the case of `O=C(COc1ccccn1)N1CCN(c2ccc(-c3cc(CNc4ccon4)on3)cc2F)CC1` [Example 12, 3-[3-fluoro-4-(2-pyridyloxyacetyl)piperazin-1-ylphenyl]-5-(isoxazol-3-ylaminomethyl)isoxazole], the MIC in assay [1] and in assay [2] was 2 µg/mL (≈ 4.18 µM) throughout.
On to `O=C(COc1ccc(/C=N\O)cc1)N1CCN(c2c(F)cc(-c3cc(CNc4ccon4)on3)cc2F)CC1` [Example 31, 4-[2-(4-{2,6-difluoro-4-[5-(isoxazol-3]aminomethyl)isoxazol-3-yl-penyl}-piperazin-1-yl)2-oxoethoxy]-benzaldoxime], for which the minimal inhibitory concentration (MIC) in assay [1] amounted to 1 µg/mL (≈ 1.86 µM); in assay [2] it was 0.5 µg/mL (≈ 0.928 µM).
In the case of `Cc1cc(NCc2cc(-c3ccc(-n4ccnc4)c(F)c3)no2)sn1` [Example 32, [3-(3-fluoro-4-imidazol-1-ylphenyl)isoxazol-5-ylmethyl]-(3-methylisotiazol-5-yl)amine], the minimum inhibitory concentration (MIC) in assay [1] and in assay [2] was 1 µg/mL (≈ 2.81 µM) each time.
`O=C(COc1cccc([N+](=O)[O-])c1)N1CCN(c2ccc(-c3cc(CNc4ccon4)on3)cc2F)CC1` [Example 13, 3-[3-fluoro-4-(3-nitrophenyloxyacetyl)piperazin-1-ylphenyl]-5-(isoxazol-3-ylaminomethyl)isoxazole]: the MIC in assay [1] came to 2 µg/mL (≈ 3.83 µM); in assay [2] it was 1 µg/mL (≈ 1.91 µM).
Turning to `O=C(c1ccno1)N1CCN(c2ccc(-c3cc(CNc4ccon4)on3)cc2F)CC1` [Example 3], the MIC amounted to 4 µg/mL (≈ 9.12 µM) in assay [1] and 2 µg/mL (≈ 4.56 µM) in assay [2].
